The values that follow come from ChEMBL document CHEMBL4364251, “Design, synthesis and biological evaluation of new quinoline derivatives as potential antitumor agents” (Eur J Med Chem, 2019).

Holding throughout (format): functional, cell-based
One assay relates to A2780. In words: Antiproliferative activity against human A2780 cells incubated for 48 hrs by MTT assay. Particulars: A2780, 48 h.
The test system of another assay is A549. In words: Antiproliferative activity against human A549 cells incubated for 48 hrs by MTT assay. The settings on record: A549, 48 h.
For another assay, the system named is BGC-823. In words: Antiproliferative activity against human BGC823 cells incubated for 48 hrs by MTT assay. The settings on record: BGC-823, 48 h.
A further assay concerns HeLa. In words: Antiproliferative activity against human HeLa cells incubated for 48 hrs by MTT assay.
For the next assay, the system named is RKO. In words: Antiproliferative activity against human RKO cells incubated for 48 hrs by MTT assay.
The subject of a further assay is HCT-116. In words: Antiproliferative activity against human HCT116 cells incubated for 48 hrs by MTT assay. Particulars: HCT-116, 48 h.
The next assay deals with NCI-H1650. In words: Antiproliferative activity against human NCI-H1650 cells incubated for 48 hrs by MTT assay. Particulars: NCI-H1650, 48 h.

On to `O=[N+]([O-])c1cccc(Nc2ccnc3cc(OCc4ccc(F)cc4)ccc23)c1`, for which the IC50 in the assay on A2780 amounted to 6.51 µM; in the assay on A549, 7.3 µM; in the assay with BGC-823 it was 9.45 µM; in the assay with HeLa, 5.79 µM; in the assay with RKO it was 8.7 µM; in the assay on HCT-116, 8.17 µM. In the assay on NCI-H1650, this compound showed a concentration for half-maximal inhibition (IC50) of 9.35 µM.

Turning to `COc1cccc(Nc2ccnc3cc(OCc4ccc(F)cc4)ccc23)c1`, the IC50 in the assay with A2780, in the assay on A549, with BGC-823, in the assay with HeLa, in the assay on RKO and in the assay on HCT-116 was over 10 µM in each case. For the same compound, in the assay on NCI-H1650, the IC50 is over 10 µM.

As for `COc1cccc(Nc2ccnc3cc(Br)ccc23)c1`, the IC50 in the assay on A2780, in the assay on A549, in the assay on BGC-823, in the assay on HeLa, with RKO and in the assay with HCT-116 was over 10 µM each time. This compound yielded an IC50 in the assay with NCI-H1650 of over 10 µM.

For the compound `Fc1cccc(Nc2ccnc3cc(OCc4ccccc4)ccc23)c1`, the IC50 in the assay on A2780, in the assay with A549, in the assay with BGC-823, in the assay with HeLa, in the assay on RKO and in the assay with HCT-116 was over 10 µM throughout. The IC50 with NCI-H1650 is over 10 µM.

For the compound `Fc1cccc(Nc2ccnc3cc(F)ccc23)c1`, the IC50 in the assay on A2780, with A549, in the assay on BGC-823, in the assay with HeLa, in the assay on RKO and with HCT-116 was over 10 µM each time. The compound further came in with an IC50 in the assay on NCI-H1650 of over 10 µM.

For `COc1ccc2c(Nc3cccc(Br)c3)ccnc2c1`, the IC50 in the assay on A2780, with A549, with BGC-823, in the assay with HeLa, with RKO and in the assay with HCT-116 was over 10 µM in each case. The same compound had an IC50 in the assay with NCI-H1650 of over 10 µM.

Take `O=[N+]([O-])c1cccc(Nc2ccnc3cc(OCCCc4ccccc4)ccc23)c1`: the half-maximal inhibitory concentration (IC50) in the assay on A2780 is 4.46 µM; in the assay with A549 it was 5.09 µM; with BGC-823, 8.32 µM; in the assay on HeLa, 4.13 µM; in the assay with RKO, 8.29 µM; with HCT-116 it was 7.46 µM. This compound also returned an IC50 in the assay on NCI-H1650 of 6.01 µM.

In the case of `Clc1cccc(Nc2ccnc3cc(Br)ccc23)c1`, the IC50 in the assay on A2780, in the assay on A549, with BGC-823, in the assay on HeLa, in the assay with RKO and in the assay on HCT-116 was over 10 µM each time. Moreover, in the assay on NCI-H1650, the IC50 is over 10 µM.

In the case of `COc1ccc2c(Nc3ccc(Cl)c(Cl)c3)ccnc2c1`, the half-maximal inhibitory concentration (IC50) in the assay with A2780, with A549, in the assay on BGC-823, in the assay on HeLa, with RKO and in the assay on HCT-116 was over 10 µM throughout. The IC50 in the assay with NCI-H1650 is over 10 µM.

Regarding `COc1cccc(Nc2ccnc3cc(OC(C)C)ccc23)c1`, the IC50 in the assay with A2780 was 0.65 µM; with A549, over 10 µM; in the assay with BGC-823, 4.73 µM; in the assay with HeLa, 0.23 µM; with RKO, over 10 µM; in the assay on HCT-116, over 10 µM. Moreover, in the assay with NCI-H1650, the IC50 was over 10 µM.

For the compound `O=[N+]([O-])c1cccc(Nc2ccnc3cc(Br)ccc23)c1`, the IC50 in the assay on A2780, with A549, with BGC-823, in the assay on HeLa, in the assay on RKO and in the assay with HCT-116 was over 10 µM each time. Also, the IC50 in the assay with NCI-H1650 is over 10 µM.

For `CC(C)Oc1ccc2c(Nc3cccc([N+](=O)[O-])c3)ccnc2c1`, the IC50 with A2780 was 1.47 µM; in the assay with A549 it was over 10 µM; in the assay on BGC-823 it was 8.39 µM; in the assay on HeLa, 0.52 µM; with RKO, over 10 µM; with HCT-116, over 10 µM. Also, in the assay with NCI-H1650, the IC50 is over 10 µM.

Turning to `COc1cccc(Nc2ccnc3cc(OCc4ccccc4)ccc23)c1`, the IC50 with A2780, in the assay with A549, in the assay with BGC-823, in the assay on HeLa, in the assay on RKO and in the assay with HCT-116 was over 10 µM throughout. In the assay on NCI-H1650, the IC50 was over 10 µM.
